Results: the METLIN SMRT retention time set (Domingo-Almenara et al. 2019)

Assay: gradient 5% acetonitrile 3 min, to 50% in 2 min, to 85% in 15 min, held 3 min, 100 µL/min
Details: column: Zorbax Extend-C18 2.1 x 50 mm; eluents: water / acetonitrile, 0.1% formic acid
Outline: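 Data were gathered over 3 months by HPLC coupled to a quadrupole time-of-flight mass spectrometer, operated in positive and negative ionization mode. Mixtures of ~100 pure standards ran on a Zorbax Extend-C18 column (2.1 × 50 mm, 1.8 μm) at 100 μL/min, with water and acetonitrile each containing 0.1% formic acid and dead and dwell volumes of 40 μL and 900 μL. Retention time was read from adduct peaks picked by computer and checked manually.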

| RP-LC retention time [s] | SMILES |
| --- | --- |
| 1010 | Cn1nc(-c2nc(-c3ccccc3F)no2)c2c1CCN(C(=O)C1(c3ccccc3)CC1)C2 |
| 948 | O=C(NCCCc1ccccc1)C1CCN(C(=O)N2CCOc3ccc(Cl)cc32)CC1 |
| 690 | CCCC(=O)Nc1ccc2c(c1)CN(C(=O)Cc1cccs1)C(C(=O)N(C)C)C2 (stereo not drawn) |
| 780 | COc1cccc(NC(=O)Nc2ccc(Cl)c(N3CCCS3(=O)=O)c2)c1OC |
| 516 | NC(=O)CSc1nccn1Cc1cccs1 |
| 604 | CCC(=O)N1CCc2sc(C(=O)NC3CCN(Cc4ccccc4)CC3)cc2C1 |
| 621 | O=C(NCCn1nc(-n2cccn2)ccc1=O)c1ccc2nsnc2c1 |
| 846 | CCOc1ccccc1NC(=O)N1CCC([C@@H]2[C@H](OC)C(=O)N2C(C)C)CC1 |
| 777 | CCN(CC)S(=O)(=O)c1ccc2c(c1)N(CC(=O)N1CCOCC1)C(=O)C1CCCCN21 (stereo not drawn) |
| 692 | CCn1cc(-c2ccccc2)cc1C(=O)NC(C)c1cccnc1 (stereo not drawn) |
| 689 | CCc1ccc(-c2cc3c(=O)n(CC(=O)NCC4CCCN4CC)ncn3n2)cc1 (stereo not drawn) |
| 659 | Cn1nc(C2CCN(C(=O)C3CCC3)CC2)c2c1CCOC2 |
| 716 | CSc1cccc(NC(=O)NCCc2cn(C)c3ncccc23)c1 |
| 922 | Cc1ccc(NC(=O)N(C)CCc2noc(COc3ccccc3F)n2)c(C)c1 |
| 715 | Cc1ccn2c(NC(=O)c3cccc(Br)c3)c(-c3ccccc3)nc2c1 |
| 811 | O=C(NCCCn1c(C(F)(F)F)nc2cccnc21)Nc1cccc(F)c1 |
| 713 | CCOC(=O)C1=C(CN2CCC(c3ccc(C)cc3)C2)NC(=O)NC1c1cccc(OC)c1OC (stereo not drawn) |
| 720 | CCn1cnc(S(=O)(=O)N2CCC(C(=O)NCc3ccccc3Cl)CC2)c1 |
| 910 | CC1CCN(S(=O)(=O)c2ccc(-c3nnc(C(=O)NCc4cccs4)o3)cc2)CC1 |
| 739 | O=C(NCc1ccccc1)C1CCCN(c2nnc3ccc(Cl)cn23)C1 (stereo not drawn) |
| 970 | O=C(c1csc(N2CCN(c3cccc(Cl)c3)CC2)n1)N1CCOCC1 |
| 836 | CC1=NS(=O)(=O)c2cccnc2N1c1ccc(Br)cc1 |

| RP-LC retention time [s] | SMILES |
| --- | --- |
| 1220 | Fc1ccc(CNc2ccc(-c3nc(-c4ccc(F)cc4)no3)cn2)cc1 |
| 780 | CCOC(=O)c1cc2c([nH]c1=O)CC(c1ccc(C)cc1)CC2=O (stereo not drawn) |
| 590 | CCCCC(=O)Nc1ccc2nc(N3CCN(CCC)CC3)cc(C(=O)O)c2c1 |
| 670 | COc1ccc(-c2noc(CN3CCC(C(=O)NC4CCCCC4)CC3)n2)cc1OC |
| 764 | CCOC(=O)Cn1c(C2CC(=O)N(Cc3ccc(F)cc3)C2)nc2ccccc21 (stereo not drawn) |
| 778 | CC(C)CCNC(=O)C1(C)Cn2nc(C(=O)NC(C)c3ccccc3)cc2C(=O)N1C (stereo not drawn) |
| 636 | COCC(=O)NC1CCC12CCN(C(=O)C(C)C)CC2 (stereo not drawn) |
| 993 | CCOC(=O)C1CCN(S(=O)(=O)c2ccc3onc(C(=O)N4CCCC4)c3c2)CC1 |
| 765 | CCOCCCNCc1ccc(-c2ccc(Cl)cc2Cl)o1 |
| 982 | O=C(NCCc1csc(-c2ccccc2)n1)C1CCN(S(=O)(=O)c2cccc(Cl)c2)CC1 |
| 1360 | COc1cccc(-c2nc(-c3ccc(S(=O)(=O)N4CCC(C)CC4)cc3)no2)c1 |
| 674 | CN(C)C(=O)c1nc2ccccn2c1-c1ccc(Cl)cc1 |
| 604 | Cc1nccn1C1CN(S(=O)(=O)c2cccc(F)c2)C1 |
| 597 | CN(C)C(=O)c1ccc2oc(CN3CCN(C(=O)NC(C)(C)C)CC3)nc2c1 |
| 811 | CN(CC1CCOCC1)S(=O)(=O)c1cccc(F)c1 |
| 807 | Cn1cc(Cl)c(C(=O)N2CCCC2c2cccc(F)c2)n1 (stereo not drawn) |
| 553 | Cc1nc(-c2ccncc2)nc2c1CCC(=O)N2Cc1cccnc1 |
| 665 | CCn1c(C)c(CCC(=O)NCCOC)c(=O)n2nc(-c3ccccc3)nc12 |
| 632 | O=C(Nc1nccs1)C1CCN(S(=O)(=O)C2CC2)CC1 |
| 947 | Cc1c(C(=O)NC2CC2)cnn1-c1ccc(-c2nc(C(C)(C)C)no2)cn1 |
| 718 | Cc1nnc(-c2ccc3ccn(CC(=O)NC(C)(C)C)c3c2)o1 |
| 940 | COc1ccc(NC(=O)N2CCCC2c2nc(-c3ccc(F)cc3F)no2)c(OC)c1 (stereo not drawn) |

| RP-LC retention time [s] | SMILES |
| --- | --- |
| 739 | Cn1c(C2CCN(S(C)(=O)=O)CC2)nn(Cc2ccc(Cl)c(Cl)c2)c1=O |
| 605 | CC1CCCCN1CCCNC(=O)CC1CCN(C(=O)C2CCCCC2)CC1 (stereo not drawn) |
| 954 | CCOc1ccc(N2CC(c3nc(-c4cc(OC)c(OC)c(OC)c4)no3)CC2=O)cc1 (stereo not drawn) |
| 672 | Cc1nc2cccnc2n1CC1CCCN(S(=O)(=O)c2ccc3c(c2)OCCO3)C1 (stereo not drawn) |
| 704 | CCCCNC(=O)C1CCCN(c2nnc3ccc(Cl)cn23)C1 (stereo not drawn) |
| 981 | N#Cc1cc(-c2ccccc2)[nH]c1-c1nccc2ccccc12 |
| 788 | Cc1cc(Cl)ccc1NC(=O)NCC1CCOCC1 |
| 675 | O=C(CN1CCN(C(=O)N2CCCCC2)CC1)Nc1cc(Cl)ccc1Cl |
| 608 | O=C(C1CCOC1)N1CCC2(CC1)NCCc1c2[nH]c2ccccc12 (stereo not drawn) |
| 636 | CN1CCN(C(c2ccncc2)c2c(NC(=O)c3ccco3)sc3c2CCCC3)CC1 (stereo not drawn) |
| 586 | COc1ccc(N2CCN(C(=O)c3ccc(=O)n(CCN4CCCC4)c3)CC2)cc1 |
| 666 | CCc1ccc(CNC(=O)C2CCN(c3cncnc3N3CCOCC3)CC2)cc1 |
| 564 | NC(=O)[C@@H]1C[C@H](Oc2cccnc2)CN1C(=O)Cn1c(=O)oc2ccccc21 |
| 797 | CCn1nc(C)c2ccn(CC(=O)NCc3ccc(Br)cc3)c(=O)c21 |
| 951 | CC1=NS(=O)(=O)N(C)C=C1C(=O)OCc1ccccc1Cl |
| 979 | CCn1c(=O)sc2cc(S(=O)(=O)N3CCC(C(=O)NCc4ccc(F)cc4)CC3)ccc21 |
| 1170 | O=C(NCCC1=CCCCC1)C1CCCN(c2nccnc2Sc2ccccc2)C1 (stereo not drawn) |
| 604 | CN(C)S(=O)(=O)c1ccc(-c2nnc(C(=O)NCc3ccncc3)o2)cc1 |
| 585 | O=C(C1CCCO1)N1CCC(OCc2nc(-c3ccncc3)no2)CC1 (stereo not drawn) |
| 897 | Cc1cc(=O)n(CCc2ccccc2)c(N2CCSCC2)n1 |
| 1130 | CCOc1ccc(C2Cn3nnc(-c4nc(-c5ccc(F)cc5)no4)c3CO2)cc1 (stereo not drawn) |
| 683 | CC(C)c1nc2c(c(=O)n1CC(=O)NCc1ccc(F)cc1)CCN(Cc1ccccc1)C2 |

| SMILES | RP-LC retention time [s] |
| --- | --- |
| CCNC(=O)N1CCC2(CC1)c1nccn1-c1ccccc1CN2CC(C)C | 623 |
| Cc1ncc2c(n1)C[C@@H]1CC[C@H]2N1S(=O)(=O)c1ccccc1C | 750 |
